Experimental data reported in patent US20240082342A1, “PEPTIDE THERAPEUTICS FOR INCREASING LUNG CELL VIABILITY” (BOARD OF REGENTS, THE UNIVERSITY OF TEXAS SYSTEM, priority 2018, published 2024).
“Also recorded” adds a separate entry of the source.

Tests used:
A2ECs treated with CSE = assay: A2ECs exposed to cigarette smoke extract (CSE) in vitro; assay type: cell-based; settings: primary A2ECs + CSE
Description: A2ECs were treated with PBS, CSP or its fragment, CSP7 or control peptide (CP), 2 h after exposure of cells to CSE. A2EC lysates were immunoblotted for acetylated/total p53 and active/total caspase-3 24 h after CSE exposure. β-actin levels were evaluated to assess equal loading.
To further confirm CSP7 mimics CSP effect, primary A2ECs were treated with cigarette smoke extract (CSE) prepared in PBS in the presence of CSP or CSP7. The A2ECs treated with CSE and CP or PBS alone were used as controls. The A2EC lysates were tested for acetylated and total p53, apoptosis and Sirt1 expression. CSE induced total and acetylated p53 while inhibiting Sirt1 expression in A2ECs indicating inhibition of Sirt1-mediated deacetylation of p53 contributes to induction of acetylated and total p53 and A2EC apoptosis.

[1] = mice; cited from earlier work
PP2A [2] = target: T1, PP2A (Mus musculus, UniProt P63330); assay: PP2A activity assay in lung homogenates of CS exposed WT mice; assay type: in vivo; settings: WT mice with CS-LI, Neb or IP, 4 weeks
T1 construct: from tissue; host or cells: lung homogenates of WT C57BL/6J mice
Description: (§1) PP2A Activity Determination and PP2A Inhibitors PP2A activity was determined using the Millipore PP2A activity assay (17-313; Millipore) (Nath S, et al., Am J Respir Cell Mol Biol. 59:695-705, 2018 December).
(§2) Determination of protein phosphatase 2A (PP2A) activity. PP2A activity was determined in isolated AECs and lung homogenates using the PP2A activity assay kit (Millipore) (Nath et al, Am J Respir Cell Mol Biol 59:695-705, 2018. doi: 10.1165/rcmb.2018-01730C.)

AECs from COPD lungs = AECs from COPD lungs treated in vitro for 48 h; assay type: cell-based, human
Description: Primary Airway Epithelial Cells (AECs); Normal, Human (ATCC® PCS-301-010™) and Primary Airway Epithelial Cells; COPD (ATCC® PCS-301-013™) were obtained from the ATCC and cultured in Airway Cell Basal Medium with glutamine, Extract P, HLL Supplement, and AEC Supplement. containing and 1% penicillin-streptomycin. The cells were maintained at 37° C. in a humidified atmosphere at 5% CO2. All media, supplements, and antibiotics were purchased from ATCC.
CSP7 and CP were dissolved in DMSO and diluted in HBSS for working concentration of 300 µg/2 ml. These peptides were used for the treatment of COPD in vitro and IP injection of mice. For nasal insufflation, the peptides were formulated as follows: 0.579 mg/ml of CSP7/CP was added to 15.456 mg/ml of lactose monohydrate in phosphate buffered saline and the pH was adjusted to 8.4 to give a clear solution. The solution was filtered through a 0.22-micron syringe filter (Bhandary et al. supra; Tiwari et al., supra).
The cells were lysed with RIPA buffer (Pierce, USA) containing protease inhibitor cocktail (Roche, Germany) and phosphatase inhibitor cocktail (Sigma-Aldrich, USA) on ice for 30 min. After centrifugation at 12,000×g and 4° C. for 20 min, the supernatants were collected. The protein concentrations were determined using the BCA protein assay kit (Pierce, USA). Cell lysates were mixed with 5×SDS-PAGE sample buffer and boiled for 5 min. Thirty micrograms of protein was subjected to 10% SDS-PAGE electrophoresis and transferred to nitrocellulose membranes. The membranes were blocked with 5% milk and then incubated at 4° C. for 16 h with the following diluted primary antibodies (Tiwari et al., supra). The blots were then washed and probed with horseradish peroxidase-conjugated secondary IgG antibodies. The bound antibodies were visualized using SuperSignal™ Maximum Sensitivity Substrate (Thermo Fisher Scientific, USA). For normalization, the membranes were stripped with Restore Western blot stripping buffer and incubated with the following primary antibodies: anti-ERK (1:1000), anti-MUC5AC (1:1000), anti-HDAC6(1:1000), anti-SPDEF(1:1000), anti-FOXA2(1:1000), anti-FOXA3 (1:1000) anti-LC3(1:1000), anti-Beclin1(1:1000), anti-p62(1:1000), anti-p53(1:1000), anti-PAI-1(1:1000) and anti-GAPDH (1:1000).
Cell culture. Primary human AECs from histologically normal and COPD lungs were purchased from ATCC. These cells were cultured in AEC Basal Medium with glutamine, extract P, HLL Supplement, and AEC supplement and 1% penicillin-streptomycin at 37° C. and 5% CO2. AT2 cells were isolated from C57BL/6 mice following the method of Corti and colleagues (Roscioli et al, 2018) with minor modifications. The cells were plated on plastic culture dishes precoated with anti-CD-32 and anti-CD-45 antibodies for 2 h at […]. Non-adherent cells were collected, and the purity of AT2 cell preparations was assessed by […] for inclusion bodies (Shetty et al, 2012).
Peptide preparation. CSP7 and CP were dissolved in DMSO and diluted in HBSS as described elsewhere (Marudamuthu et al., SciTransl Med 11: eaat2848, 2019. doi: 10.1126/scitranslmed.aat2848). These peptides were used to treat AECs in vitro or IP injection of CS-exposed mice. For airway delivery by liquid nebulization, CSP7 (0.579 mg/ml) was added to PBS containing lactose monohydrate (15.456 mg/ml). The pH was adjusted to 8.4 to give a clear solution, filtered through a 0.22-micron syringe filter as described earlier (Marudamuthu et al., 2019.)
Protein extraction and Western blot assay. AEC and AT2 cell lysates were prepared using RIPA buffer (Pierce, USA) containing a protease inhibitor cocktail (Roche, Germany) and phosphatase inhibitor cocktail (Sigma-Aldrich, USA). AEC and AT2 cell lysates were subjected to Western blotting using ERK, MUC5AC, HDAC6, SPDEF, FOXA2, FOXA3, LC3, p53, PAI-1, Acp53, S15p53, cleaved caspase-3, β-galactosidase and R-actin antibodies at 1:500-1:1000 dilution (Table 1). […]

PP2A [3] = assay: PP2A activity assay in AECs and lung tissues from COPD lungs; assay type: cell-based, human
Description: as §1, §2

T1 sequence (P63330 whole entry): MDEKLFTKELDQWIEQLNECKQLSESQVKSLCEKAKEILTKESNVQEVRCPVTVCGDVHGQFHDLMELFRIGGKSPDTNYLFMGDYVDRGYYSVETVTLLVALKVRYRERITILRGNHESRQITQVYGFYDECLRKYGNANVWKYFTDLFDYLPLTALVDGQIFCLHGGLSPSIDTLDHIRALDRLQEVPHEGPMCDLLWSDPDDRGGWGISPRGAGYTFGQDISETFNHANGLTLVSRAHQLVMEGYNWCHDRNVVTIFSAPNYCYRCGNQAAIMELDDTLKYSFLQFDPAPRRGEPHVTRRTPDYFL

Row | Substance | CSE-induced apoptosis (A2ECs treated with CSE) | tolerability [1] | PP2A activity / signaling (PP2A [2]) | Beclin-1 and ATG5 expression (AECs from COPD lungs) | ERK phosphorylation (AECs from COPD lungs) | FOXA2, acetylated alpha-tubulin, CAV1, p53 and PAI-1 proteins (AECs from COPD lungs) | LC3-II accumulation (AECs from COPD lungs) | MMP12 expression (AECs from COPD lungs) | PP2A and CIP2A protein (Western blot) (AECs from COPD lungs) | PP2A mRNA (AECs from COPD lungs) | p62 expression (AECs from COPD lungs) | MUC5AC, HDAC6, PAI-1, p53, Cav1, FOXA3, SPDEF, LC3, FOXA2, Ac-Tub proteins (Western blot) (AECs from COPD lungs; 48 h) | PP2A activity (PP2A [3]; AECs from COPD lungs, 48 h) | PP2A activity (PP2A [3]; COPD lung tissues ex vivo, 10 μM, 72 h)
1 | DGIWKASFTTFTVTKYWFYR (listed as Homo sapiens) [CSP, 20 residue caveolin-1 scaffolding domain peptide] | inhibited CSE-induced apoptosis | well-tolerated | – | – | – | – | – | – | – | – | – | – | – | –
2 | FTTFTVT (listed as Homo sapiens) [CSP7, heptapeptide fragment of the caveolin-1 scaffolding domain peptide CSP] | inhibited CSE-induced apoptosis | well-tolerated | reversed by CSP7; also recorded: improved PP2A activity | mitigate | decrease in ERK phosphorylation; also recorded: reversed in AECs exposed to CSP7 | restoration of FOXA2 and acetylated alpha-tubulin, and inhibition of CAV1, p53 and PAI-1 | reversed | decreased; also recorded: markedly reduced the MMP12 level | reversed | improved | significantly elevated | reversed; also recorded: reduced the expression of MUC5AC, HDAC6, FOXA3, SPDEF and, LC3 | increased activity of PP2AC; also recorded: significantly improved | –
3 | WGIDKAFFTTSTVTYKWFRY [CP, scrambled control peptide with the same amino acid composition as CSP, reference compound] | – | – | still showed loss of PP2A activity | – | still showed elevated phospho-ERK1/2 | – | – | – | – | – | – | – | failed to increase the PP2A activity | minimal effect
